This is an account of results in PubChem BioAssay (NCI).

Holding throughout (assay): inhibition of tumour cell growth, NCI panel, 48 h
The test system of assay [1] is T-47D breast.
Assay [2] relates to M19-MEL melanoma.
Assay [3] deals with LXFL 529 NSCLC.
The subject of assay [4] is HOP-18 NSCLC.
For assay [5], the system named is DMS 273 small cell lung.
Assay [6] concerns KM20L2 colon.
Assay [7] relates to XF 498 CNS.
For assay [8], the system named is MDA-N.

The structures appear in SMILES notation. Several values for one entry are separate records, joined by “and”; a condition that tells them apart may be missing. Equal values may be shown once.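 Tested at 5 concentrations; 48 h exposure; 96-well plates; endpoints linearly interpolated, else capped at highest concentration. GI50: concentration for 50% inhibition of growth. TGI marks complete inhibition of growth.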

As for `C=C(CN1CCN(c2ccccn2)CC1)c1ccc(C(=O)Nc2ccccc2N)cc1`, in assay [1], the GI50 is 1.23 µM and the TGI was determined as 20.9 µM.
Consider `COc1ccc2c(CN3CCCC[C@H]3O)cc3cc4c(cc3c2c1)OCO4`, for which, in assay [1], the GI50 is 0.393 µM and the TGI turned out to be 5.46 µM.
As to `CCOC(=O)NN1C(=O)C(=P(c2ccccc2)(c2ccccc2)c2ccccc2)C(C(=O)OC)=C1C`, the TGI in assay [2], in assay [3], in assay [4], in assay [5], in assay [6] and in assay [7] was > 100 µM each time.
For `Cc1nc(Nc2ccc(Cl)cc2)sc1C(=O)Nc1cccc2c(=O)[nH][nH]c(=O)c12`, the TGI was 84.4 µM in assay [2], 86.6 µM in assay [3], > 100 µM in assay [5] and 41.2 µM in assay [6].
Regarding `COC(=O)N[C@@H](C)CNc1nccc(-c2cn(C(C)C)nc2-c2cc(Cl)cc(NS(C)(=O)=O)c2F)n1`, in assay [1], the GI50 is > 100 µM and the TGI is > 100 µM.
Take `COc1ccc(C2=NNC(c3sc(Cl)nc3Cl)C2)cc1` (stereo not given): in assay [1], the GI50 was 2.68 µM and the TGI was 8.89 µM.
Take `CN1C2C=CC(=O)C1C(C#N)C2` (stereo not given): the TGI in assay [8] was > 100 µM; in assay [1], 75.9 µM and > 100 µM.
For the compound `COc1ccc(C(=O)c2ccccc2)c(O)c1`, in assay [1], the GI50 is 10.1 µM and the TGI was > 100 µM.
Regarding `COc1ccc2c(c1)[n+](=O)c(/C=C/C(=O)c1cc(OC)c(OC)c(OC)c1)c(C)n2[O-]`, in assay [1], the GI50 was 2.56 µM and the TGI worked out at 14.7 µM.
Consider `O=C(NCCCN1CCN(CCCNC(=O)Nc2cc(Cl)ccc2Cl)CC1)Nc1cc(Cl)ccc1Cl`, for which the TGI in assay [3], in assay [4], in assay [5], in assay [6] and in assay [7] was > 100 µM in each case.
`Cc1cc(O)c2c(c1)OC1(C)CCC3C(C)(C)CCCC34COC2C14` (stereo not given): the TGI in assay [3] was 28.2 µM; in assay [5], 27.1 µM; in assay [6], 33.3 µM.
Regarding `COC(=O)CCC(NC(=S)N/N=C(\C)c1cccs1)C(=O)OC` (stereo not given), the TGI in assay [2], in assay [3], in assay [4], in assay [5], in assay [6] and in assay [7] was > 100 µM throughout.
Turning to `CN(Cc1cnc2nc(N)nc(N)c2n1)c1c(Cl)cc(C(=O)NC(CCC(=O)O)C(=O)O)cc1Cl` (stereo not given), the TGI in assay [1] is > 100 µM.
Regarding `O=C(CC1(O)CCCCC1)OC1CCCC1`, the TGI in assay [8] and in assay [1] was > 100 µM throughout.
On to `COC1CCC(OC)C(c2nc3sccn3c2/C=N/N=C(N)N)C1` (stereo not given), for which, in assay [1], the GI50 was 31.9 µM and the TGI was > 65.4 µM.
`CCNc1ccc2c(c1)C(=O)N(OS(C)(=O)=O)C2=O`: the TGI in assay [8] and in assay [1] was > 100 µM each time.
For `CC(C)C(Br)C(=O)NCC(=O)O` (stereo not given), the TGI in assay [8] and in assay [1] was > 100 µM throughout.
For `CCCC(=O)Nc1cc(/C=C/C(=O)N2C[C@@H]3C[C@]34C2=CC(=O)c2[nH]cc(C)c24)n(C)c1`, the TGI in assay [8] is 0.879 µM; in assay [1], 1.08 µM.
As for `Nc1ccccc1SC(/C=C/NNC1=NC(c2ccccc2)C(c2ccccc2)=NN1)c1ccccc1` (stereo not given), the values for the TGI in assay [2], in assay [5] and in assay [6] were 25 µM, 36.8 µM and 44.9 µM, respectively.
As to `OC[C@H]1N[C@H](CO)[C@@H](O)[C@H]1O`, the TGI in assay [1] was > 100 µM.
As for `OC(Cc1cccc2ccccc12)CN1CCC(c2ccccc2)CC1` (stereo not given), the TGI in assay [8] came out at 27.3 µM; in assay [1], 40.6 µM.
With `Cc1cccc(C=NC23CC4CC(CC(C4)C2)C3)c1`, the TGI in assay [2], in assay [4], in assay [5], in assay [6] and in assay [7] was > 100 µM each time.
`NC(=S)c1cccc(C2Nc3ccccc3O2)c1` (stereo not given): in assay [1], the TGI is > 100 µM.
As for `CCNC(=O)COc1ccc(Cl)c(C)c1`, the TGI in assay [2], in assay [3], in assay [4], in assay [5] and in assay [6] was > 100 µM each time.
Turning to `Cn1cc(-c2csc(-c3ccc(Cl)cc3)n2)c2cccnc21`, in assay [1], the GI50 is 5.17 µM and the TGI was determined as 36.4 µM.
Regarding `COc1ccc(C(=O)Cn2c(C(=O)c3ccc(Cl)cc3)nc(-c3ccccc3)c2-c2ccccc2)cc1`, in assay [1], the GI50 is > 100 µM and the TGI was > 100 µM.
`N#C/C(=C/C=C/c1cccc(Cl)c1)S(=O)c1ccccc1` (stereo not given): in assay [1], the GI50 was 0.234 µM and the TGI stood at 1.11 µM.
`N.N.N.N.O=S([O-])[O-].[Co+3].[N-]=[N+]=[N-]`: the GI50 in assay [3], in assay [5] and in assay [6] was > 100 µM each time. Besides, the TGI in assay [3], in assay [5] and in assay [6] was > 100 µM throughout.
`COc1cc(C=NCC(=O)CSC(c2ccccc2)c2ccccc2)ccc1O`: in assay [1], the GI50 is 2.86 µM and the TGI was 12.3 µM.
With `O=C(O)CCN1C(=S)CSC1=S`, the TGI in assay [8] and in assay [1] was > 100 µM in each case.
Turning to `COc1cc(N)c(Cl)cc1C(=O)N[C@@H]1CCN(CCCOc2ccc(F)cc2)C[C@@H]1OC`, in assay [1], the GI50 is 27.3 µM and the TGI is > 100 µM.
In the case of `COc1c(OC2OC(C)C(O)C(O)C2O)c(OC)c2oc(-c3ccc(O)cc3)cc(=O)c2c1O` (stereo not given), in assay [1], the GI50 is 22.3 µM and the TGI was > 100 µM.
Take `C/C(=N/NC(N)=S)C(CN1CCOCC1)C(C1=C(O)c2ccccc2OC1)c1ccccc1` (stereo not given): the TGI in assay [2], in assay [3], in assay [4], in assay [6] and in assay [7] was > 100 µM each time.
As to `NCCOCCOCC(=O)O`, the TGI in assay [2], in assay [3], in assay [5] and in assay [6] was > 100 µM in each case.
Consider `O=C1C=C(NCCc2ccccc2)c2ccccc2C1=O`, for which the TGI in assay [2] was 0.927 µM; in assay [3], 19.1 µM; in assay [8], 3.39 µM; in assay [4], 3 µM; in assay [5], 7.55 µM; in assay [1] it was 40.1 µM. The TGI in assay [6] is 18.7 µM.
For the compound `BrCc1ccc2ccc3ccc(CBr)nc3c2n1`, the TGI in assay [2] turned out to be 14.1 µM; in assay [3], 3.19 µM; in assay [8], 12.7 µM; in assay [4] it was 5.48 µM; in assay [5] it was 3.34 µM; in assay [6], 29.3 µM.
With `O=C1c2ccccc2-c2c1c1ccccc1c(=O)n2CCNCCNCCNCCNCCn1c2c(c3ccccc3c1=O)C(=O)c1ccccc1-2`, in assay [1], the GI50 is 1.99 µM and the TGI was > 100 µM.
Consider `COC(=O)c1c(C(=O)O)c(-c2ccccc2)c(-c2ccccc2)c(-c2ccccc2)c1-c1ccccc1`, for which, in assay [1], the GI50 was 75.7 µM and the TGI is > 100 µM.
The corresponding values for `CSC(=S)NCc1cn(C)c2ccccc12` are 29.5 µM and > 100 µM.
The corresponding values for `COc1cc(C2CC(c3ccc(Cl)cc3)=NN2C(C)=O)ccc1Oc1ccnc2cc(Cl)ccc12` (stereo not given) are 2.85 µM and > 100 µM.
The corresponding values for `Cc1cc(C)c(-c2c(O)c(Br)c(-c3c(C)cc(C)c(Br)c3C)c(O)c2Br)c(C)c1Br` are 1.7 µM and 4.84 µM.
As for `CC(=O)/C(=N\N=C(N)N)c1ccccc1`, the TGI in assay [8] and in assay [1] was > 100 µM each time.
With `O=C(Cc1nc2ccccc2s1)C(=O)Nc1cccc(C(F)(F)F)c1`, the TGI in assay [2], in assay [3], in assay [4], in assay [5] and in assay [6] was > 100 µM in each case.
Turning to `CN(C)CCN=c1nc2c(c(N)n1-c1ccccc1)c(=S)n(-c1ccccc1)c(=S)n2-c1ccccc1`, in assay [1], the GI50 was 1.88 µM and the TGI was found to be 4.34 µM.
For the compound `C[C@]12CCC3c4ccc(O)cc4CCC3C1CC[C@@H]2NC(=O)/C=C/c1ccc(O)c(O)c1` (stereo not given in full), in assay [1], the GI50 is 9.57 µM and the TGI was > 100 µM.
For `CC(C)(O)c1cc(Nc2cc(Oc3cn(C4CC4)nc3C3CCOCC3)ccn2)ccn1`, in assay [1], the GI50 was 23.6 µM and the TGI is > 100 µM.
Take `CC(=O)c1nc(-c2ccc(C[C@@H](CNC(=O)CN(C)C)NC(=O)c3ccc(OC(C)C)c(Cl)c3)cc2)cn1C`: in assay [1], the GI50 was 0.0538 µM and the TGI turned out to be 20.1 µM.
Taken in the same sequence, the figures for `S=C(Nc1ccc(-c2nc3ccccc3s2)cc1)Nc1ccc(-c2nc3ccccc3s2)cc1` were 18.8 µM and > 100 µM.
For the compound `CCOC(=O)C(Cc1cc(OC)c(CC(C(=O)OCC)C(=O)OCC)cc1OC)C(=O)OCC`, the TGI in assay [2], in assay [3], in assay [8], in assay [5], in assay [1] and in assay [6] was > 100 µM throughout. The compound also came in with a TGI in assay [7] of 53.7 µM.
Consider `O=C1N=C2N=C(c3ccc(Cl)cc3)N(c3ccc(Cl)cc3)N2Sc2ccccc21`, for which the TGI in assay [2] is > 100 µM; in assay [3] it was > 100 µM; in assay [4], > 100 µM; in assay [5] it was > 100 µM; in assay [6] it was > 100 µM; in assay [7], 99.4 µM.
Turning to `O=C(OCC1=CC(=O)c2ccccc2C1=O)c1ccccc1`, in assay [1], the GI50 is 14.6 µM and the TGI is 42.3 µM.
With `CC(C)(C)OC(=O)NCCCCCCCCCCCCn1c2c(c3ccccc3c1=O)C(=O)c1ccccc1-2`, in assay [1], the GI50 was > 100 µM and the TGI is > 100 µM.
Consider `C=C(c1ccccc1)c1cc2c(=O)[nH]ccc2n1C`, for which the TGI in assay [2] was > 100 µM; in assay [3], > 100 µM; in assay [5], > 100 µM; in assay [6], 59.7 µM; in assay [7], 91 µM.
For the compound `C/C(=C\c1ccccc1)C(=O)c1c(C)cc(C)cc1C`, the TGI in assay [2], in assay [3], in assay [4], in assay [6] and in assay [7] was > 100 µM throughout.
With `C[C@@H]1CC2(C[C@@H](C)C3[C@@H](CC4(C)CCCC5C6=CC(O)(CC[C@]34C)OC6=CC(=O)OC5(C)C)O2)OC1=O` (stereo not given in full), the TGI in assay [3], in assay [4], in assay [5] and in assay [7] was > 100 µM throughout.
Turning to `O=C(O)C1CC2C=CCC(C2)C1` (stereo not given), the TGI in assay [2], in assay [3], in assay [4], in assay [5], in assay [6] and in assay [7] was > 100 µM throughout.
With `Cc1cc(C)nc(NC(=O)COc2ccc(Cl)cc2)c1`, the TGI in assay [8] and in assay [1] was > 100 µM throughout.
Take `C=C1C(=O)O[C@@H]2C[C@@H](C)[C@@H]3C=CC(=O)[C@@]3(C)[C@@H](OC(=O)CCCC(=O)O[C@H]3[C@@H]4C(=C)C(=O)O[C@@H]4C[C@@H](C)[C@@H]4C=CC(=O)[C@]43C)[C@H]12`: the TGI in assay [8] came to 0.0431 µM; in assay [1] it was 0.0666 µM.
`CCOC(=O)c1sc(NC(=O)COc2ccc(/C=C3\CCc4cc(OC)ccc4C3=O)cc2)nc1C`: in assay [1], the GI50 is 9.13 µM and the TGI came out at 30.7 µM.
As for `COc1cccc(C=NC23CC4CC(CC(C4)C2)C3)c1`, the TGI in assay [2], in assay [5] and in assay [6] was > 100 µM throughout.
`CCOC(=O)/C=C/c1ccc([N+](=O)[O-])o1`: in assay [1], the GI50 was 5.55 µM and the TGI stood at 25.9 µM.
Taken in the same sequence, the figures for `COc1ccc(/C=C(\C#N)c2cc(OC)c(OC)c(OC)c2)cc1` were 0.672 µM and 61.8 µM.
